Experimental findings from ChEMBL document CHEMBL3046846, “Synthesis of N-Alkyl-2, 3-dimethyl-5-[N-(5-halo-2-methylphenyl)carbamoyl]-6-pyrazinecarboxamides and Their Herbicidal Activity” (J Pestic Sci, 1997) are described below.

In series [1] the test system is Veronica persica. In words: Herbicidal activity against Veronica persica at 500 g/ha after 2 weeks. Type of series: functional.
The subject of series [2] is Galium spurium. In words: Herbicidal activity against Galium spurium var. echinospermon (Wally.) Hayek at 500 g/ha after 2 weeks. Type of series: functional.
In series [3] the test system is Xanthium strumarium. The series is described as follows: Herbicidal activity against Xanthium strumarium (cocklebur) 500 g/ha after 2 weeks. It is filed as functional.
In series [4] the test system is Abutilon theophrasti. In words: Herbicidal activity against Abutilon theophrasti (velvetleaf) at 500 g/ha after 2 weeks. Type of series: functional.
Series [5] relates to Avena fatua. In words: Herbicidal activity against Avena fatua at 500 g/ha after 2 weeks. It is filed as functional.
Series [6] concerns Echinochloa crus-galli. In words: Herbicidal activity against Echinochloa crus-galli (barnyard grass) at 500 g/ha after 2 weeks. Type of series: functional.
Series [7] concerns Glycine max. The series is described as follows: Herbicidal activity against Glycine max (soybean) at 500 g/ha after 2 weeks. Type of series: organism-based. Conditions: in vivo, 336 h.
Series [8] concerns Triticum aestivum. In words: Herbicidal activity against Triticum aestivum (wheat) at 500 g/ha after 2 weeks. Type of series: ADME, organism-based. Conditions: in vivo, 336 h.
The test system of series [9] is Veronica persica. In words: Herbicidal activity against Veronica persica at 250 g/ha after 2 weeks. It is filed as functional.
The test system of series [10] is Galium spurium. In words: Herbicidal activity against Galium spurium var. echinospermon (Wally.) Hayek at 250 g/ha after 2 weeks. It is filed as functional.
Series [11] has as its system Xanthium strumarium. In words: Herbicidal activity against Xanthium strumarium (cocklebur) 250 g/ha after 2 weeks. Type of series: functional.
Series [12] has as its system Abutilon theophrasti. The series is described as follows: Herbicidal activity against Abutilon theophrasti (velvetleaf) at 250 g/ha after 2 weeks. It is filed as functional.
Series [13] concerns Echinochloa crus-galli. In words: Herbicidal activity against Echinochloa crus-galli (barnyard grass) at 250 g/ha after 2 weeks. It is filed as functional.
Series [14] has as its system Avena fatua. In words: Herbicidal activity against Avena fatua at 250 g/ha after 2 weeks. It is filed as functional.
In series [15] the test system is Glycine max. The series is described as follows: Herbicidal activity against Glycine max (soybean) at 250 g/ha after 2 weeks. Type of series: organism-based. Conditions: in vivo, 336 h.
The test system of series [16] is Triticum aestivum. The series is described as follows: Herbicidal activity against Triticum aestivum (wheat) at 250 g/ha after 2 weeks. It is filed as organism-based. The conditions noted are these: in vivo, 336 h.
Series [17] relates to Veronica persica. The series is described as follows: Herbicidal activity against Veronica persica at 5000 g/ha after 2 weeks. It is filed as functional.
Series [18] concerns Galium spurium. The series is described as follows: Herbicidal activity against Galium spurium var. echinospermon (Wally.) Hayek at 5000 g/ha after 2 weeks. It is filed as functional.
For series [19], the system named is Xanthium strumarium. The series is described as follows: Herbicidal activity against Xanthium strumarium (cocklebur) 5000 g/ha after 2 weeks. It is filed as functional.
The test system of series [20] is Abutilon theophrasti. The series is described as follows: Herbicidal activity against Abutilon theophrasti (velvetleaf) at 5000 g/ha after 2 weeks. It is filed as functional.
In series [21] the test system is Echinochloa crus-galli. The series is described as follows: Herbicidal activity against Echinochloa crus-galli (barnyard grass) at 5000 g/ha after 2 weeks. It is filed as functional.
The subject of series [22] is Avena fatua. In words: Herbicidal activity against Avena fatua at 5000 g/ha after 2 weeks. Type of series: functional.
The test system of series [23] is Glycine max. In words: Herbicidal activity against Glycine max (soybean) at 5000 g/ha after 2 weeks. It is filed as organism-based. Conditions: in vivo, 336 h.
Series [24] relates to Triticum aestivum. The series is described as follows: Herbicidal activity against Triticum aestivum (wheat) at 5000 g/ha after 2 weeks. It is filed as ADME, organism-based. Conditions: in vivo, 336 h.

Regarding `CC[C@@H](C)NC(=O)c1nc(C)c(C)nc1C(=O)Nc1cc(Cl)ccc1C`, the Activity with Veronica persica [1] was 95%; in the series on Galium spurium [2] it was <10%; in the series with Xanthium strumarium [3], <10%; in the series on Abutilon theophrasti [4] it was <10%; in the series on Avena fatua [5], <10%; in the series with Echinochloa crus-galli [6], <10%. In addition, the Activity in the series with Glycine max [7] was < 10%; with Triticum aestivum [8], < 10%; in the series with Veronica persica [9] it was 70%; in the series on Galium spurium [10], <10%; in the series on Xanthium strumarium [11], <10%; with Abutilon theophrasti [12], <10%. For the same molecule, the Activity was <10% in the series with Echinochloa crus-galli [13]; <10% in the series with Avena fatua [14]; < 10% in the series on Glycine max [15]; < 10% in the series with Triticum aestivum [16]; 95% in the series on Veronica persica [17]; 95% with Galium spurium [18]. Also, the Activity is 95% with Xanthium strumarium [19]; 95% in the series on Abutilon theophrasti [20]; 95% with Echinochloa crus-galli [21]; 30% in the series on Avena fatua [22]; < 10% with Glycine max [23]; 30% in the series on Triticum aestivum [24].

Turning to `CC[C@H](C)NC(=O)c1nc(C)c(C)nc1C(=O)Nc1cc(Cl)ccc1C`, the Activity in the series with Veronica persica [1] was 95%; in the series on Galium spurium [2], <10%; in the series on Xanthium strumarium [3] it was <10%; with Abutilon theophrasti [4] it was <10%; with Avena fatua [5], <10%; in the series on Echinochloa crus-galli [6], <10%. Further, the Activity is < 10% with Glycine max [7]; < 10% in the series on Triticum aestivum [8]; 95% in the series with Veronica persica [9]; <10% with Galium spurium [10]; <10% in the series on Xanthium strumarium [11]; <10% with Abutilon theophrasti [12]. The Activity is listed as <10% in the series on Echinochloa crus-galli [13]; <10% in the series on Avena fatua [14]; < 10% in the series on Glycine max [15]; < 10% in the series with Triticum aestivum [16]; 95% in the series on Veronica persica [17]; 50% in the series with Galium spurium [18]. Further, the Activity is listed as 95% in the series with Xanthium strumarium [19]; 95% with Abutilon theophrasti [20]; 95% with Echinochloa crus-galli [21]; 30% in the series with Avena fatua [22]; < 10% with Glycine max [23]; 30% with Triticum aestivum [24].

With `Cc1ccc(Cl)cc1NC(=O)c1nc(C)c(C)nc1C(=O)NC(C)(C)C`, the Activity is 70% in the series with Veronica persica [1]; <10% in the series on Galium spurium [2]; <10% in the series on Xanthium strumarium [3]; <10% in the series with Abutilon theophrasti [4]; <10% with Avena fatua [5]; <10% in the series with Echinochloa crus-galli [6]. Further, the Activity in the series with Glycine max [7] is < 10%; with Triticum aestivum [8], < 10%; in the series with Veronica persica [9], 10%; in the series with Galium spurium [10], <10%; with Xanthium strumarium [11], <10%; in the series on Abutilon theophrasti [12], <10%. Also, the Activity is recorded as <10% with Echinochloa crus-galli [13]; <10% in the series with Avena fatua [14]; < 10% with Glycine max [15]; < 10% in the series on Triticum aestivum [16]; 95% in the series with Veronica persica [17]; 30% in the series on Galium spurium [18]. Also, the Activity is 95% in the series on Xanthium strumarium [19]; 95% with Abutilon theophrasti [20]; 70% in the series with Echinochloa crus-galli [21]; <10% in the series with Avena fatua [22]; < 10% in the series on Glycine max [23]; 10% in the series on Triticum aestivum [24].
